Data published in US12448705B2, “Bacteriophage compositions and methods of selection of components against specific bacteria” (priority 2016, dated 2025).
Values after ≈ are worked out from the molar mass of the structure shown.

Columns and labels:
Assay type in all cases: cell-based
[1] = system: vancomycin-resistant E. faecalis (VRE); experiment: microbe, parasite or virus in culture
Method: A culture of VRE was first grown in tryptic soy broth (Remel Cat #R455054) to an Optical Density (OD) of 0.5 at 600 nm. Tryptic soy with tetrazolium dye D (BioLog Cat #74224) was added to a 1% v/v ratio and then sterilized through a 0.22 μm filtration unit (Millipore Cat #SCGP00525). VRE stock phage was serially diluted in tryptic soy broth with dye in separate Eppendorf tubes to a final concentration of 10^7 pfu/ml. Vancomycin (Sigma, Cat #SBR00001-10 ml) was diluted separately in tryptic soy broth with tetrazolium dye to a concentration equal to 4 times the Minimal Inhibition Concentration (MIC) for the bacteria being used.
Briefly, microtiter plates for the phage-antibiotics synergy assay were prepared as follows. Tryptic soy broth with dye was added to the plate first. Next 50 μl of tryptic soy with tetrazolium dye was added to each well. […] The wells with Vancomycin were serially diluted 1:1 from row A down to row F. Phage were added to each well starting at 10^7 pfu/well in column 1 and then serially diluted 1:10 across from column 1 to 6. Individual phage was added at an MOI of 100. Finally all wells were inoculated with approximately 10^4 cfu of E. faecalis bacteria per well. […] The color change of all plates was recorded every 15 minutes over the course of the 48 hour incubation period.

[2] = system: meropenem^R K. pneumoniae 4640; experiment: Phage efficacy assay with meropenem and phage; settings: alone; meropenem 4 μg/ml; phage MOI 100; 48 hours at 37° C.
Method: The assay is based on the interaction between lytic phage and bacteria in a liquid environment. In this liquid assay system, tetrazolium dye is added with media. During active growth of bacteria, cellular respiration reduces the tetrazolium dye and produces a color change that is captured by a camera. In this system as many as 400 phage efficacy assays in the presence of a targeted bacterium can be performed simultaneously but separately, thus allowing monitoring of the kinetics of bacterial growth and the development of resistance over the course of the experiment. The interpretation of such phage-bacterial interaction data in liquid environment permits the selection of phages that are highly virulent against the given bacteria, evidenced by a hold-time of at least 4 hours. Further selection of these phages for cocktail preparation is evaluated using the same liquid assay in the presence of various mixtures of these virulent phages.
Using the phage efficacy assay described in Example 1, 10^4 cfu of meropenem^R K. pneumoniae was grown at 37° C. for 48 hours in the following conditions: (a) alone; (b) meropenem or phage (MOI 100); and (c) meropenem and varying MOIs of phage (MOI 0.01-100). The concentration of meropenem used for the indicated cultures was 4 μg/ml. […] The readout of this assay is bacterial growth hold-time.

[3] = system: A. baumannii strain TP3; experiment: Checkerboard assay, phage cocktail and minocycline; settings: Acinetobacter baumannii, TP3, read-out: Minimal Inhibition Concentration (MIC)
[4] = system: A. baumannii strain TP3; experiment: Minocycline ETEST; settings: Acinetobacter baumannii, TP3, read-out: IC50 of A. baumannii strain TP3 to minocycline by ETEST
Method: For example, this assay was performed in order to better understand the interaction between the phage cocktail and minocycline administered in combination to the patient discussed in Example 5. Specifically, each well of a 96 well plate contained tryptic soy media with 1% tetrazolium dye (v/v) for bacterial growth media. […] The wells with antibiotics were then serially diluted 1:1 from row A down to row F. Phage were then added to each well starting at 10^7 pfu per well in column 1 and then serially diluted 1:10 across from column 1 to 6. All wells were then inoculated with approximately 10^4 cfu of bacteria per well. This design allows for antibiotic dilutions going down the columns and dilutions of phage going across the rows. Columns 7 and 8 represent antibiotic control wells and rows G and H represent phage control wells. However, wells G7, G8, H7, and H8 represent bacteria only control wells. […] The IC50 of A. baumannii strain TP3 to minocycline by ETEST (bioMerieux USA, Durham, NC) was 4 μg/mL.

[5] = system: A. baumannii isolate; experiment: Minocycline susceptibility of patient's isolate; settings: day 115, previously obtained isolate

Q: Which results are given for CN[C@H](CC(C)C)C(=O)N[C@H]1C(=O)N[C@@H](CC(N)=O)C(=O)N[C@H]2C(=O)N[C@H]3C(=O)N[C@H](C(=O)N[C@H](C(=O)O)c4cc(O)cc(O)c4-c4cc3ccc4O)[C@H](O)c3ccc(c(Cl)c3)Oc3cc2cc(c3O[C@@H]2O[C@H](CO)[C@@H](O)[C@H](O)[C@H]2O[C@H]2C[C@](C)(N)[C@H](O)[C@H](C)O2)Oc2ccc(cc2Cl)[C@H]1O [Vancomycin]?
A: delay of bacterial growth ([1]; 10^4 cfu per well, phage MOI of 100, vancomycin 16 μg/ml, 48 hours at 37° C., FIG. 25): up to 18 hours; MIC ([1]; Enterococcus faecalis, VRE, read-out: minimal inhibitory concentration for E. faecalis): 16 µg/mL (≈ 11 µM)

Q: How did the hold-time [2] turn out when C[C@@H](O)[C@H]1C(=O)N2C(C(=O)O)=C(S[C@@H]3CN[C@H](C(=O)N(C)C)C3)[C@H](C)[C@H]12 [meropenem] was run?
A: approximately 6 hours

Q: Which MIC [3] does the source give for CN(C)c1ccc(O)c2c1C[C@H]1C[C@H]3[C@H](N(C)C)C(O)=C(C(N)=O)C(=O)[C@@]3(O)C(O)=C1C2=O [minocycline] here?
A: 32 µg/mL

Q: What about the IC50 [4] of the same compound?
A: 4 µg/mL

Q: And the “concentration at which isolate found susceptible” value [5]?
A: 3 µg/mL
